Measurements taken from ChEMBL document CHEMBL1144267, “New conformationally locked bicyclic N,O-nucleoside analogues of antiviral drugs” (2005).

Legend:
Type in all cases: functional
Human alphaherpesvirus 1 [1] = test: Antiviral efficacy in Vero cells infected with HSV-1 at concentration of 100 uM
Human alphaherpesvirus 1 [2] = test: Antiviral efficacy in Vero cells infected with HSV-1 at concentration of 200 uM
Human alphaherpesvirus 1 [3] = test: Antiviral efficacy in Vero cells infected with HSV-1 at concentration of 400 uM
Human alphaherpesvirus 1 [4] = test: Antiviral efficacy in Vero cells infected with HSV-1 at concentration of 800 uM

Structure (SMILES)	Cells killed (Human alphaherpesvirus 1 [1]) [%]	Cells killed (Human alphaherpesvirus 1 [2]) [%]	Cells killed (Human alphaherpesvirus 1 [3]) [%]	Cells killed (Human alphaherpesvirus 1 [4]) [%]
O=c1ccn(C2CC3CCCN3O2)c(=O)[nH]1 (configuration not stated)	-41	-55	-70	-83
Cc1cn(C2CC3CCCN3O2)c(=O)[nH]c1=O (configuration not stated)	-5	-10	-12	-55
Nc1ccn(C2CC3CCCN3O2)c(=O)n1 (configuration not stated)	-3	-3	-6	-67
